Test results reported in patent US5877030A, “Process for creating molecular diversity and novel protease inhibitors produced thereby” (priority 1995, dated 1999).

Experiments:
[1] = rat model; Sobajima et al.; cited from earlier work
thrombin = test: Specificity against other proteases such as thrombin (initial experiments); assay type: biochemical
trypsin [2] = target: T1, trypsin (Bos taurus, UniProt P00760); test: Trypsin inhibitor assay (trypsin-catalyzed hydrolysis of BAPA, absorbance at 410 nm), iterative screening of libraries; assay type: biochemical; details: comparison in words
T1 sequence (P00760 24-246): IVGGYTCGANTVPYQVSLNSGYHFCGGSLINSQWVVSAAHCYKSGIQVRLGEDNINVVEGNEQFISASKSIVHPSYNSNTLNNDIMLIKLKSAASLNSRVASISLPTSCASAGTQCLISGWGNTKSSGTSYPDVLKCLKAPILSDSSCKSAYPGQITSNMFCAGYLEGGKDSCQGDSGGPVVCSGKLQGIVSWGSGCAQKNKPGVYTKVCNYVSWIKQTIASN
Procedure: Each sub-library 1A-1F was tested for its ability to inhibit trypsin activity and the percent trypsin activity was correlated to the specific tool molecule group (see Table 3) that had been omitted during synthesis of the sub-library being assayed.

trypsin [3] = target: T1, trypsin; test: Ki determination on trypsin (BAPA substrate, Michaelis-Menten / reciprocal plots); assay type: biochemical; details: for Ki: preliminary investigations
Procedure: The rate of the trypsin catalyzed reaction was determined by monitoring the increase in absorbance at 410 nm over time. In all measurements 5% (v/v) of dimethylsulfoxide (DMSO) was added to solubilize the libraries. For a typical assay, 50 μL of a library solution in DMSO and 10 μL of the trypsin stock solution (2.5 mg trypsin in 25 mL 0.001M HCl) were added to 5 mL of buffer (0.5M Tris-HCl, 0.16M CaCl21 pH 8.2) at 25° C. In regard to FIG. 19, the library solutions used for Charts A and B contained 2.5 mg in 50 μL DMSO; the library solution for Chart C contained 1 mg in 50 AL DMSO and the library solution for Chart D contained 0.5 mg in 50 μL DMSO.
After incubating for 10 min., the cloudy mixture was centrifuged, 0.4 mL of the clear supernatant was removed and diluted with 400 μL of buffer in a disposable 1.5 mL UV cuvette. Then, 50 μL of the BAPA (defined below) stock solution (50 mg BAPA in 5 mL DMSO) was added and the increase in absorbance at 410 nm was monitored. The trypsin activity was compared to a reference cuvette without added library material (B).
Methods for determining the Ki of an enzyme inhibitor would be known to those of ordinary skill in the art. (See also "Enzyme Kinetics & Behavior, Analysis of Rapid Equilibrium, and Steady State Enzyme Systems", ed. Segel, John Wiley & Sons, Inc., N.Y., N.Y. (1993), the contents of which are incorporated herein by reference.) A summary of the procedure used to obtain the Ki value for compound of Formula V.

Row | Structure (SMILES) | treatment of severe acute pancreatitis [1] | interference with other proteases, such as thrombin (thrombin) | activity relative to structural isomer Formula VI (trypsin [2]) | mode of inhibition of trypsin (trypsin [3]; 1/velocity vs. 1/(substrate concentration), five inhibitor concentrations 1×10^-6 M to 1×10^-4 M) | Ki (trypsin [3]; 'in the 10 μM range') | Ki (trypsin [3]; trypsin 7.4×10^-8 M, BAPA 2×10^-4 M to 7×10^-3 M, inhibitor 1×10^-6 M to 1×10^-4 M)
1 | CS(=O)(=O)O.N=C(N)Nc1ccc(C(=O)Oc2ccc(SCCN3C(=O)CCC3=O)cc2)cc1 [4-(2-succinimidoethylthio)-phenyl 4-guanidinobenzoate methane sulfonate] | treating severe acute pancreatitis |  |  |  |  | 
2 | CC[C@H](C)[C@H](NC(=O)c1cc(C(=O)N2CCC[C@H]2C(=O)O)cc2c1Oc1c(C(=O)N[C@@H](CCCCN)C(=O)OC)cc(C(=O)N[C@H](C(=O)O)C(C)C)cc1C2(C)C)C(=O)O [Formula V] |  | does not interfere with other proteases, such as thrombin | significantly more active than its structural isomer Formula VI | competitive inhibitor of trypsin | ~10 µM | ~9 µM
